Laboratory results taken from patent US20070032453A1, “ADJUVANT CHEMOTHERAPY FOR ANAPLASTIC GLIOMAS” (Oklahoma Medical Research Foundation, priority 2005, published 2007).
“Also recorded” adds a separate entry of the source.

Legend:
C6 gliomas [1] = assay: C6 glioma growth in rats monitored by T2-weighted MRI (tumor volumes, ImageJ); format: in vivo, rat
Protocol: (§1) Cells injection. Three-month-old male Fischer 344 rats (250-350 g) were fed a choline-deficient diet. Each animal was anesthetized (3% isoflurane at 2.5 L/mn oxygen) and placed on a stereotaxic device (Stoelting, USA). The skin of the head was cleaned and incised. A hole was drilled through the skull 2 mm anterior and 2 mm lateral to the bregma, in the right-hand side of the skull. C6, 9L/LacZ or F98 cells (10^6 in 10 μL cell culture media) in a ultra-low gelling temperature agarose are injected in the cortex at a 3 mm-depth at a rate of 2 μL/mn. A waiting time of 2 min was implemented following injection and bone wax was put in the burr-hole to prevent any reflux. The wound was sutured and covered with surgical glue. The surgery was performed in sterile conditions. The syringes containing the C6, 9L/LacZ or F98 cells are kept at 37° C. until the moment of use.
PBN treatment. […] The treatment was continuous and was started at different time points. […] Some rats were not treated and served as controls (n=5).
MRI experiments. MRI experiments were performed on a 7 Tesla-30 cm horizontal bore magnet (Bruker BioSpin MRI Gmbh, Germany) at day 6-10 after the cells were injected and then every 2-3 days until the death of the rat. The animal was anesthetized (1.5% isoflurane at 1.5 L/mn oxygen) and placed in a MR probe (Bruker BioSpin MRI Gmbh, Germany). A head coil (Bruker BioSpin MRI Gmbh, Germany) was put on its head and the brain was localized.
(§2) Tumor growth monitoring. T1/T2-weighted images were obtained by a double-echo multi-slice spin echo method. Twenty-four axial slices of 1 mm thickness with an interslice distance of 1 mm were taken with a repetition time of 2369.64 ms and echo times of 17.41 ms and 63.85 ms for an acquisition time of 20 min. Tumor volumes were determined with the software ImageJ 1.32j (NIH, USA).
A T2-weighted morphological MRI method was used.

C6 gliomas [2] = assay: MR angiography of C6 gliomas (angiogenesis, arterial blood volumes); format: in vivo, rat
Protocol: Angiography. Coronal slices are acquired by a FLASH (fast low angle shot) method with a volume of interest of 2.7×1.7×1.2 cm^3, an echo time of 2.3 ms, a repetition time of 25 ms and a flip angle of 25° for an acquisition time of 27 min. A MIP (maximum intensity projection) technique was then applied to the data to obtain a 3D-angiography. Angiography was used to visualize new blood vessel formation, i.e., angiogenesis.
The method used was quantitative analysis (using a Mathematica-based program developed in our laboratory) of arterial signal intensities from in vivo MR angiography data. Glioma region arterial blood volumes were compared to blood volumes in the contralateral control cerebral hemisphere.

[3] = cited from earlier work
C6 gliomas [4] = assay: Image-guided MR spectroscopy, metabolite ratios in C6 glioma; format: in vivo, rat; settings: C6 glioma rats treated with PBN
Protocol: MRS experiments. Water suppression was performed by a CHESS (chemical shift suppression) method. A spectrum was acquired in a […] voxel in the tumor region and in the contralateral control side of the brain, by using PRESS (point resolved spectroscopy) with a repetition time of 3000 ms, an echo time of 21.34 ms for an acquisition time of 13 min. An outer volume suppression tool was used to get rid of the 5 mm thick surrounding signal around the voxel. The metabolite peaks were assigned as follows, based on previous literature (Fan et al., 2004; Griffin et al., 2003): NAA at 2.02 ppm, Cr at 3.03 ppm, Cho at 3.25 ppm and mobile lipids at 1.33 ppm (methylene group) and 0.9 ppm (methyl group). Peak areas were calculated in reference to Cr peak and relative ratios were determined: NAA/Cho, NAA/Cr, Cho/Cr and Lipids/Cr. A decrease in NAA levels and an increase in lipids are indicative of the presence of a glioma (Ishimaru et al., 2001).
MR spectral peak areas were measured using the Bruker XWIN NMR peak intragration software package.

C6 gliomas [5] = assay: Histology (H&E) of C6 glioma rat brain; format: in vivo; settings: C6 rat glioma treated with PBN
Source text: Note that PBN-treated C6 glioma rat brain has neuronal cells that appear similar to control rat brain. Untreated C6 glioma depicts malignant cells that are atypical in appearance (grade II to III) with few mitotic and apoptotic figures being present.
Conclusion. […] The malignant cells in the large neoplastic mass (FIG. 8B) were moderately atypical in appearance (grade II to III) with few mitotic and apoptotic figures being present. Large central areas of the mass […]) were also necrotic.

F98 gliomas = assay: F98 glioma growth in rats monitored by T2-weighted MRI; format: in vivo, rat; settings: PBN five days prior to intracerebral cell implantation
Protocol: as §1, §2

HIF-1α [6] = assay: IGF-1 induced HIF-1α expression in Hepa 1-6 cells; format: cell-based; settings: mouse hepatocellular carcinoma cell line (Hepa 1-6)
Source text: (§3) The band densities of HIF-1α were normalized by the bands of CoCl2 which was used as the positive control.
(§4) HIF-1α is a major transactivation factor which is central to the induction of VEGF as well as iNOS and many other genes very important in the development of cancer. VEGF is very important in angiogenesis essential for tumor growth and is a major target of several anti-cancer companies.

HIF-1α [7] = assay: IGF-1 induced HIF-1α expression in HCT-116 cells; format: cell-based; settings: HCT116 human colon cancer cells, 20% O2
Source text: as §3, §4

c-MET = c-MET (Homo sapiens, UniProt P08581); assay: c-MET inhibition
c-MET, sequence (P08581 25-1390): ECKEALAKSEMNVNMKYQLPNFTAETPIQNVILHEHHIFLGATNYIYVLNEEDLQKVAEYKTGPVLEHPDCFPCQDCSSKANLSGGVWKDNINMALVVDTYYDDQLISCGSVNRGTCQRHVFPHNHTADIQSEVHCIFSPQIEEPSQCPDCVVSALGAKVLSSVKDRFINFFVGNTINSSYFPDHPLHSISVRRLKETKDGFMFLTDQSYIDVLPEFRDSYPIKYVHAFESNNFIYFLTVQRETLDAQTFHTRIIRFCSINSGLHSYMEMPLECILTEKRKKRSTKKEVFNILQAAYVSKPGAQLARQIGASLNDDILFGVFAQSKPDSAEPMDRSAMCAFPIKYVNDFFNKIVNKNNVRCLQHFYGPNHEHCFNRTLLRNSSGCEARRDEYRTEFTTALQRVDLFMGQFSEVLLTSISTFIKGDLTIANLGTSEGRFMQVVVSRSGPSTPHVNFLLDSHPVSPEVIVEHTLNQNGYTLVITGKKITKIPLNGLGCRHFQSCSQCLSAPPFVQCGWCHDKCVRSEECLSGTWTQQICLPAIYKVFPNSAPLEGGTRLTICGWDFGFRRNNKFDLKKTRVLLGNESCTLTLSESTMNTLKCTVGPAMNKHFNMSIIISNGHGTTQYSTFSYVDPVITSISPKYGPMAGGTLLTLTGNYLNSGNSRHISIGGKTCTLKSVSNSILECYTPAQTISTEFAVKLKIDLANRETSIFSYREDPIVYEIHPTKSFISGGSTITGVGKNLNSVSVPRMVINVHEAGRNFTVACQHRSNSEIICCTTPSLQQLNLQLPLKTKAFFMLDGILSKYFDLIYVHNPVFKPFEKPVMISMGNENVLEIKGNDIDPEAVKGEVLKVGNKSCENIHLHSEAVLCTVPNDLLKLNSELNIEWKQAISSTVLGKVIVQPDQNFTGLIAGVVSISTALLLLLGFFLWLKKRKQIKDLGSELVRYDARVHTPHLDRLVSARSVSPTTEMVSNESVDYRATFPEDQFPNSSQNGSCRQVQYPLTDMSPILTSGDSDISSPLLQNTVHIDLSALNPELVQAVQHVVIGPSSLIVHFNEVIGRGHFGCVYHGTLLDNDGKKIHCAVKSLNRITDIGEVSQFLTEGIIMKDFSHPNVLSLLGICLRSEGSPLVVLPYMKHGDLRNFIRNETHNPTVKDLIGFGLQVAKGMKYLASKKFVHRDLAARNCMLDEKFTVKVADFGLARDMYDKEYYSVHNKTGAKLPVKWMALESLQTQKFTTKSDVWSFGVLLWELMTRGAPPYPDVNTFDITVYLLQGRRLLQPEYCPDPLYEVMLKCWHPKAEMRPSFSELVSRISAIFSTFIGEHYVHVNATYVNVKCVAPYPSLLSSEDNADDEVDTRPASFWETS

C6 gliomas [8] = assay: Survival of rats with intracerebral C6 glioma; format: in vivo, rat
Source text: FIG. 11—Anti-Glioma Therapy/Percent Survival. […] Based on survival data obtained from FIG. 10.

[9] = PBN started 5 days before surgery

SMILES: CC(C)(C)[N+]([O-])=Cc1ccc(O)cc1 [4-hydroxy-PBN, 4-hydroxyphenyl N-tert-butylnitrone]
- animals with suppressed and recessed tumor growth (C6 gliomas [1]; 75 mg/kg/day in drinking water from 5 days prior to implantation, n=5): 40%
- animals with decrease in tumor growth and angiogenesis (C6 gliomas [2]; C6 gliomas, morphology and angiography data): 2 of 5

SMILES: CC(C)(C)[N+]([O-])=Cc1ccccc1 [PBN, phenyl N-tert-butyl nitrone]
- tissue distribution ([3]; rat, in vivo): readily and rapidly distributed almost equally to all tissues
- half-life ([3]; rats): about 132 minutes
- NAA levels compared to choline (Cho) levels (C6 gliomas [4]): increase to normal levels
- lipid levels compared to creatine (Cr) levels (C6 gliomas [4]): decrease to normal levels
- doubling time (C6 gliomas [1]; PBN 75 mg/kg/day in drinking water started on the day of surgery or 5 days after): 2.3 to 2.4 days
- doubling time (C6 gliomas [1]; [9]): 4.1 days
- maximum tumor volume (C6 gliomas [1]; [9]): 50 mm^3
- tumor course after maximal volume (C6 gliomas [1]; PBN started on the day of surgery or 5 days after): the tumor starts to regress until it almost completely disappears
- animals with recession of tumor / eradication of further tumor formation (C6 gliomas [1]; PBN starting 14 days after cell implantation, tumors >50 mm3): 40%
- glioma growth outcome (C6 gliomas [1]; continuous PBN starting 5 days prior to cell implantation, n=5): recession to no tumor in all animals studied; also recorded: either not develop or recede once intially formed in all rats
- histology (H&E), tumor cells (C6 gliomas [5]): no evidence of tumor cells
- glioma development (F98 gliomas): not develop in all rats
- normalized tumor arterial blood volumes (C6 gliomas [2]; C6 glioma, PBN 5 days prior to cell implantation, quantitative MR angiography): suppression and/or a decrease in blood volumes
- changes in angiogenesis (angiograms) (C6 gliomas [2]; C6 gliomas, Example 2, qualitative MR angiography): did not seem to induce changes in angiogenesis
- induction of HIF-1α (HIF-1α [6]): inhibits the induction of HIF-1α
- induction of HIF-1α (HIF-1α [7]): inhibits the induction of HIF-1α
- c-MET inhibition (c-MET): inhibits c-MET
- rats surviving longer than 40 days (study end-point) (C6 gliomas [8]; PBN 5 days prior to C6 cell implantation): Eighty
- rats surviving longer than 40 days (C6 gliomas [8]; PBN 14 days after C6 cell implantation): 40%
